Test results: patent publication US9469650B2, “Melampomagnolide B derivatives” (BOARD OF TRUSTEES OF THE UNIVERSITY OF ARKANSAS, priority 2013, dated 2016)

How the values were obtained:
[1] = test system: A498; experiment: panel of 60 human tumor cell lines, growth inhibition (Renal Cancer); details: A498
[2] = test system: CAKI-1; experiment: as above; details: CAKI-1
[3] = test system: RXF 393; experiment: as above; details: RXF 393
[4] = test system: MDA-MB-468; experiment: panel of 60 human tumor cell lines, growth inhibition (Breast Cancer); details: MDA-MB-468
[5] = test system: IGROV1; experiment: panel of 60 human tumor cell lines, growth inhibition (Ovarian Cancer); details: IGROVI
[6] = test system: NCI/ADR-RES; experiment: as above
[7] = test system: PC-3; experiment: panel of 60 human tumor cell lines, growth inhibition (Prostate Cancer); details: PC-3
[8] = test system: DU-145; experiment: as above; details: DU-145
[9] = test system: HOP-92; experiment: panel of 60 human tumor cell lines, growth inhibition (Non-Small Cell Lung Cancer); details: HOP-92
[10] = test system: NCI-H23; experiment: as above; details: NCI-H23

`C=C1C(=O)O[C@H]2[C@H]1CC/C(COC(=O)N1CCN(C)CC1)=C\CC[C@@]1(C)O[C@@H]21` [JVM 2-44] was tested, and the “Mean Optical Densities” value ([1]; Log10 Concentration −6.0) was 2.296, the “Percent Growth” value ([1]; Log10 Concentration −6.0) was 67% and the “Mean Optical Densities” value ([1]; Log10 Concentration −7.0) was 2.301. For the same molecule, the “Percent Growth” value ([1]; Log10 Concentration −7.0) was 68%, the “Mean Optical Densities” value ([1]; Log10 Concentration −8.0) was 2.357 and the “Percent Growth” value ([1]; Log10 Concentration −8.0) was 74%. The GI50 [2] was 4 µM, the TGI [2] was 1.67E−5 and the “Mean Optical Densities” value ([2]; Log10 Concentration −4.0) was 0.032. The “Percent Growth” value ([2]; Log10 Concentration −4.0) was −95%, the “Mean Optical Densities” value ([2]; Log10 Concentration −5.0) was 1.287 and the “Percent Growth” value ([2]; Log10 Concentration −5.0) was 27%. The “Mean Optical Densities” value ([2]; Log10 Concentration −6.0) was 2.593, the “Percent Growth” value ([2]; Log10 Concentration −6.0) was 84% and the “Mean Optical Densities” value ([2]; Log10 Concentration −7.0) was 2.649. The “Percent Growth” value ([2]; Log10 Concentration −7.0) was 87%, the “Mean Optical Densities” value ([2]; Log10 Concentration −8.0) was 2.814 and the “Percent Growth” value ([2]; Log10 Concentration −8.0) was 94%. For the same molecule, the GI50 [3] was 2.55 µM, the TGI [3] was 8.91E−6 and the “Mean Optical Densities” value ([3]; Log10 Concentration −4.0) was 0.329. The “Percent Growth” value ([3]; Log10 Concentration −4.0) was −71%, the “Mean Optical Densities” value ([3]; Log10 Concentration −5.0) was 1.871 and the “Percent Growth” value ([3]; Log10 Concentration −5.0) was −5%. For the same molecule, the “Mean Optical Densities” value ([3]; Log10 Concentration −6.0) was 1.644, the “Percent Growth” value ([3]; Log10 Concentration −6.0) was 87% and the “Mean Optical Densities” value ([3]; Log10 Concentration −7.0) was 1.692. The “Percent Growth” value ([3]; Log10 Concentration −7.0) was 96%, the “Mean Optical Densities” value ([3]; Log10 Concentration −8.0) was 1.646 and the “Percent Growth” value ([3]; Log10 Concentration −8.0) was 88%. For the same molecule, the GI50 [4] was 1.87 µM, the TGI [4] was 8.56E−6 and the “Mean Optical Densities” value ([4]; Log10 Concentration −4.0) was 0.228. For the same molecule, the “Percent Growth” value ([4]; Log10 Concentration −4.0) was −71%, the “Mean Optical Densities” value ([4]; Log10 Concentration −5.0) was 0.737 and the “Percent Growth” value ([4]; Log10 Concentration −5.0) was −5%. The “Mean Optical Densities” value ([4]; Log10 Concentration −6.0) was 1.156, the “Percent Growth” value ([4]; Log10 Concentration −6.0) was 66% and the “Mean Optical Densities” value ([4]; Log10 Concentration −7.0) was 1.377. The “Percent Growth” value ([4]; Log10 Concentration −7.0) was 104%, the “Mean Optical Densities” value ([4]; Log10 Concentration −8.0) was 1.328 and the “Percent Growth” value ([4]; Log10 Concentration −8.0) was 95%. The GI50 [5] was 11.1 µM, the TGI [5] was 2.99E−5 and the “Mean Optical Densities” value ([5]; Log10 Concentration −4.0) was 0.249. For the same molecule, the “Percent Growth” value ([5]; Log10 Concentration −4.0) was −65%, the “Mean Optical Densities” value ([5]; Log10 Concentration −5.0) was 1.363 and the “Percent Growth” value ([5]; Log10 Concentration −5.0) was 59%. For the same molecule, the “Mean Optical Densities” value ([5]; Log10 Concentration −6.0) was 1.902, the “Percent Growth” value ([5]; Log10 Concentration −6.0) was 107% and the “Mean Optical Densities” value ([5]; Log10 Concentration −7.0) was 1.888. For the same molecule, the “Percent Growth” value ([5]; Log10 Concentration −7.0) was 106%, the “Mean Optical Densities” value ([5]; Log10 Concentration −8.0) was 1.866 and the “Percent Growth” value ([5]; Log10 Concentration −8.0) was 104%. The GI50 [6] was 24.6 µM, the TGI [6] was over 1.00E−4 and the “Mean Optical Densities” value ([6]; Log10 Concentration −4.0) was 0.606. For the same molecule, the “Percent Growth” value ([6]; Log10 Concentration −4.0) was 1%, the “Mean Optical Densities” value ([6]; Log10 Concentration −5.0) was 1.819 and the “Percent Growth” value ([6]; Log10 Concentration −5.0) was 82%. The “Mean Optical Densities” value ([6]; Log10 Concentration −6.0) was 2.094, the “Percent Growth” value ([6]; Log10 Concentration −6.0) was 100% and the “Mean Optical Densities” value ([6]; Log10 Concentration −7.0) was 2.049. For the same molecule, the “Percent Growth” value ([6]; Log10 Concentration −7.0) was 97%, the “Mean Optical Densities” value ([6]; Log10 Concentration −8.0) was 2.060 and the “Percent Growth” value ([6]; Log10 Concentration −8.0) was 98%. The GI50 [7] was 21.8 µM, the TGI [7] was 4.89E−5 and the “Mean Optical Densities” value ([7]; Log10 Concentration −4.0) was 0.340. The “Percent Growth” value ([7]; Log10 Concentration −4.0) was −44%, the “Mean Optical Densities” value ([7]; Log10 Concentration −5.0) was 1.854 and the “Percent Growth” value ([7]; Log10 Concentration −5.0) was 98%. For the same molecule, the “Mean Optical Densities” value ([7]; Log10 Concentration −6.0) was 1.917, the “Percent Growth” value ([7]; Log10 Concentration −6.0) was 103% and the “Mean Optical Densities” value ([7]; Log10 Concentration −7.0) was 1.899. The “Percent Growth” value ([7]; Log10 Concentration −7.0) was 102%, the “Mean Optical Densities” value ([7]; Log10 Concentration −8.0) was 1.916 and the “Percent Growth” value ([7]; Log10 Concentration −8.0) was 103%. The GI50 [8] was 3.98 µM, the TGI [8] was 1.44E−5 and the “Mean Optical Densities” value ([8]; Log10 Concentration −4.0) was 0.835. The “Percent Growth” value ([8]; Log10 Concentration −4.0) was −93%, the “Mean Optical Densities” value ([8]; Log10 Concentration −5.0) was 0.750 and the “Percent Growth” value ([8]; Log10 Concentration −5.0) was 17%. For the same molecule, the “Mean Optical Densities” value ([8]; Log10 Concentration −6.0) was 1.844, the “Percent Growth” value ([8]; Log10 Concentration −6.0) was 99% and the “Mean Optical Densities” value ([8]; Log10 Concentration −7.0) was 1.845. The “Percent Growth” value ([8]; Log10 Concentration −7.0) was 99%, the “Mean Optical Densities” value ([8]; Log10 Concentration −8.0) was 1.839 and the “Percent Growth” value ([8]; Log10 Concentration −8.0) was 99%. For the same molecule, the GI50 [9] was 2.95 µM, the TGI [9] was 1.48E−5 and the “Mean Optical Densities” value ([9]; Log10 Concentration −4.0) was 0.116. The “Percent Growth” value ([9]; Log10 Concentration −4.0) was −87%, the “Mean Optical Densities” value ([9]; Log10 Concentration −5.0) was 0.995 and the “Percent Growth” value ([9]; Log10 Concentration −5.0) was 18%. The “Mean Optical Densities” value ([9]; Log10 Concentration −6.0) was 1.307, the “Percent Growth” value ([9]; Log10 Concentration −6.0) was 79% and the “Mean Optical Densities” value ([9]; Log10 Concentration −7.0) was 1.345. For the same molecule, the “Percent Growth” value ([9]; Log10 Concentration −7.0) was 86%, the “Mean Optical Densities” value ([9]; Log10 Concentration −8.0) was 1.394 and the “Percent Growth” value ([9]; Log10 Concentration −8.0) was 95%. For the same molecule, the GI50 [10] was 11.8 µM, the TGI [10] was 3.12E−5 and the “Mean Optical Densities” value ([10]; Log10 Concentration −4.0) was 0.244. For the same molecule, the “Percent Growth” value ([10]; Log10 Concentration −4.0) was −60%, the “Mean Optical Densities” value ([10]; Log10 Concentration −5.0) was 1.347 and the “Percent Growth” value ([10]; Log10 Concentration −5.0) was 58%. For the same molecule, the “Mean Optical Densities” value ([10]; Log10 Concentration −6.0) was 1.872, the “Percent Growth” value ([10]; Log10 Concentration −6.0) was 100% and the “Mean Optical Densities” value ([10]; Log10 Concentration −7.0) was 1.838. The “Percent Growth” value ([10]; Log10 Concentration −7.0) was 97%, the “Mean Optical Densities” value ([10]; Log10 Concentration −8.0) was 1.849 and the “Percent Growth” value ([10]; Log10 Concentration −8.0) was 98%.
